Experiment [1] has as its target GSK3α (GST-full length GSK3α) (Homo sapiens (Human), UniProt P49840). Briefly: GSK3α TR-FRET kinase assay. In kind it is biochemical. In a few lines: (§1)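 IC50 came from the normalized 665/615 nm TR-FRET ratio plotted against log compound concentration. The Tb-labelled pSer641 antibody and streptavidin-d2 detected phosphorylation of biotinylated S645-primed glycogen synthase peptide (200 nM) by 1 nM full-length GST-kinase. ATP was 4 μM for α, 2 μM for β, or 1 mM.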
Background: In TR-FRET formats the signal depends on donor and acceptor labels being close together.

Experiment [2] concerns the target GSK3b (GST-full length GSK3b) (Homo sapiens (Human), UniProt P49841). Briefly: GSK3b TR-FRET kinase assay. In kind it is biochemical. In a few lines:
as §1

The mark [3] stands for this setting: 1 nM GSK3α, 4 μM ATP, 30 minute preincubation, geometric mean, read-out: GSK3-A TR-FRET BIOCHEMICAL (TR-FRET), GMean, IC50.
Setting [4] is: 1 nM GSK3b, 2 μM ATP, 30 minute preincubation, geometric mean, read-out: GSK3-B TR-FRET BIOCHEMICAL (TR-FRET), GMean, IC50.
[5] abbreviates: 1 nM GSK3α, 4 μM ATP, 30 minute preincubation, Table 16, read-out: GSK3-A TR-FRET BIOCHEMICAL (TR-FRET), IC50.
The mark [6] stands for this setting: 1 nM GSK3b, 2 μM ATP, 30 minute preincubation, Table 16, read-out: GSK3-B TR-FRET BIOCHEMICAL (TR-FRET), IC50.
Where [7] appears, read: 1 nM GSK3α, 4 μM ATP, 30 minute preincubation, Table 16, read-out: GSK3-A TR-FRET BIOCHEMICAL (TR-FRET).
Setting [8] is: 1 nM GSK3b, 2 μM ATP, 30 minute preincubation, Table 16, read-out: GSK3-B TR-FRET BIOCHEMICAL (TR-FRET).
[9] abbreviates: 1 nM GSK3α, 4 μM ATP, 30 minute preincubation, read-out: GSK3-A TR-FRET BIOCHEMICAL (TR-FRET), IC50.
Where [10] appears, read: read-out: GSK3-A (TR-FRET 1 mM ATP), GMean, IC50, 1 mM ATP, geometric mean.
[11] abbreviates: 1 nM GSK3b, 2 μM ATP, 30 minute preincubation, read-out: GSK3-B TR-FRET BIOCHEMICAL (TR-FRET), IC50.
Where [12] appears, read: read-out: GSK3-B (TR-FRET 1 mM ATP), GMean, IC50, 1 mM ATP, geometric mean.

Read-outs that look alike come from different tables or passages of the source. Where only a bound is given, the exact number is not on record here.

GSK3b (GST-full length GSK3b), sequence (P49841 whole entry): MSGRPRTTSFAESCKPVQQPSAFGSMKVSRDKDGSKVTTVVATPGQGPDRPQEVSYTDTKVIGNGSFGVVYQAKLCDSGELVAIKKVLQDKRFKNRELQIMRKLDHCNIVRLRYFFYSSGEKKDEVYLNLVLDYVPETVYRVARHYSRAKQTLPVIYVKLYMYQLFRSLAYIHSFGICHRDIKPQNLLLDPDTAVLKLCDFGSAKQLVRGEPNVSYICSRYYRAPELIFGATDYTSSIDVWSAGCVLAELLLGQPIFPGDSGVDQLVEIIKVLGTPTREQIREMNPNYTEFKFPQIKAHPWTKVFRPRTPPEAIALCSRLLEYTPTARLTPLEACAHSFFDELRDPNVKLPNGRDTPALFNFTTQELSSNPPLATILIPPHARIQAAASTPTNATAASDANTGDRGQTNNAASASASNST
GSK3α (GST-full length GSK3α), sequence (P49840 whole entry): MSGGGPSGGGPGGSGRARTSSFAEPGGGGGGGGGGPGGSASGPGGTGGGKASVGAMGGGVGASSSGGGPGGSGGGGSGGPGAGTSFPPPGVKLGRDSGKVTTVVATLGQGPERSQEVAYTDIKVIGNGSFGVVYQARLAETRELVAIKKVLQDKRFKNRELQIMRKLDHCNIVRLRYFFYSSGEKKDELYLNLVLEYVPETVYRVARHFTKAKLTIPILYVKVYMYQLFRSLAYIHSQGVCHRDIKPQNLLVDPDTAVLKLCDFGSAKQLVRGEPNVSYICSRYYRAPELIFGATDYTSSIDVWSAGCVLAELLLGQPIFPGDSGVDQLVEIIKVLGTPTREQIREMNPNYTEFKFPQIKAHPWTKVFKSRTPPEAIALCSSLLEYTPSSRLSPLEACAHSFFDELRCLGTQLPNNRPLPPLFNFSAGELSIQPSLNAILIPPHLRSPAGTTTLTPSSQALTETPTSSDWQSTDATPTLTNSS

With `CC[C@]1(c2cccc(S(C)(=O)=O)c2)C2=C(CC(C)(C)CC2=O)Nc2n[nH]cc21` [Compound 826719], the IC50 is 1 to 5 µM in experiment [1] (setting [3]) and over 5 µM in experiment [2] (setting [4]).

Turning to `CC(=O)N1CCC2(C1)C1=C(CC(C)(C)CC1=O)Nc1n[nH]cc12` (stereo not drawn) [Compound 826763], the IC50 in experiment [1] (setting [5]) was 0.1 to 1 µM; in experiment [2] (setting [6]), 1 to 5 µM.

`CC1CCCC12C1=C(CC(C)(C)CC1=O)Nc1n[nH]cc12` (stereo not drawn) [Compound 826765]: the IC50 in experiment [1] (setting [7]) was 0.1 to 1 µM; in experiment [2] (setting [8]), 1 to 5 µM.

On to `CC[C@]1(c2ccccc2)C2=C(CC(C)(C)[C@@H](F)C2=O)Nc2n[nH]cc21` [Compound 826766], for which the IC50 in experiment [1] (setting [3]) and in experiment [2] (setting [4]) was 0.1 to 1 µM each time.

On to `CC[C@]1(c2ccccc2)C2=C(CC(C)(C)[C@H](F)C2=O)Nc2n[nH]cc21` [Compound 826767], for which the IC50 in experiment [1] (setting [3]) and in experiment [2] (setting [4]) was over 5 µM in each case.

For the compound `CC[C@@]1(c2ccccc2)C2=C(CC(C)(C)[C@@H](F)C2=O)Nc2n[nH]cc21` [Compound 826768], the IC50 in experiment [1] (setting [3]) is at most 0.1 µM; in experiment [2] (setting [4]) it was 0.1 to 1 µM.

Regarding `CC[C@@]1(c2ccccc2)C2=C(CC(C)(C)[C@H](F)C2=O)Nc2n[nH]cc21` [Compound 826769], the IC50 in experiment [1] (setting [3]) and in experiment [2] (setting [4]) was over 5 µM each time.

As for `CCC1(c2cccc(C(F)(F)F)c2)C2=C(CC(C)(C)N(C)C2=O)Nc2n[nH]cc21` (stereo not drawn) [Compound 826790], the IC50 in experiment [1] (setting [9]) was at most 0.1 µM; in experiment [1] (setting [10]) it was 0.1 to 1 µM; in experiment [2] (setting [11]) it was at most 0.1 µM; in experiment [2] (setting [12]), 1 to 5 µM.

Regarding `CCC1(c2cccc(C(F)(F)F)c2)C2=C(CC(C)(C)N(C)C2=O)Nc2n[nH]cc21` (stereo not drawn) [Compound 826791], the IC50 in experiment [1] (setting [9]) lay in the range of 0.1 to 1 µM; in experiment [2] (setting [11]), 1 to 5 µM.

For `CCC1(c2cccc(Br)c2)C2=C(CC(C)CC2=O)Nc2n[nH]c(C(F)(F)F)c21` (stereo not drawn) [Compound 828849], the IC50 in experiment [1] (setting [3]) and in experiment [2] (setting [4]) was 0.1 to 1 µM in each case.

In the case of `CCC1(c2ccccc2)C2=C(CCC(C)(C)C2=O)Nc2n[nH]cc21` (stereo not drawn) [Compound 835310], the IC50 in experiment [1] (setting [3]) lay within 0.1 to 1 µM; in experiment [2] (setting [4]) it was 1 to 5 µM.

On to `CCC1(c2cccc(Br)c2)C2=C(CC(C)(C)C(F)C2=O)Nc2n[nH]cc21` (stereo not drawn) [Compound 835312], for which the IC50 in experiment [1] (setting [3]) and in experiment [2] (setting [4]) was over 5 µM throughout.

Take `CC[C@]1(c2cccc(Br)c2)C2=C(CC(C)(C)[C@@H](F)C2=O)Nc2n[nH]cc21` [Compound 835313]: the IC50 in experiment [1] (setting [3]) and in experiment [2] (setting [4]) was over 5 µM throughout.

Consider `CCC1(c2cccc(Br)c2)C2=C(CC(C)(C)C(F)C2=O)Nc2n[nH]cc21` (stereo not drawn) [Compound 835314], for which the IC50 was at most 0.1 µM in experiment [1] (setting [3]) and 0.1 to 1 µM in experiment [2] (setting [4]).

For the compound `CCC1(c2cccc(Br)c2)C2=C(CC(C)(C)C(F)C2=O)Nc2n[nH]cc21` (stereo not drawn) [Compound 835315], the IC50 in experiment [1] (setting [3]) was at most 0.1 µM; in experiment [1] (setting [10]) it was 0.1 to 1 µM; in experiment [2] (setting [4]), at most 0.1 µM; in experiment [2] (setting [12]), 1 to 5 µM.

Regarding `CCC1(c2cccc(-c3ccnc(C)c3)c2)C2=C(CC(C)(C)CC2=O)Nc2n[nH]cc21` (stereo not drawn) [Compound 840857], the IC50 is at most 0.1 µM in experiment [1] (setting [3]) and 0.1 to 1 µM in experiment [2] (setting [4]).

As to `CCC1(COC)C2=C(CC(C)(C)CC2=O)Nc2n[nH]cc21` (stereo not drawn) [Compound 841866], the IC50 in experiment [1] (setting [5]) and in experiment [2] (setting [6]) was over 5 µM each time.

With `CN1CCC2(C1)C1=C(CC(C)(C)CC1=O)Nc1n[nH]cc12` (stereo not drawn) [Compound 841867], the IC50 in experiment [1] (setting [5]) and in experiment [2] (setting [6]) was over 5 µM throughout.

As for `CCC1(c2cccc(N(C)c3ccncc3)c2)C2=C(CC(C)(C)CC2=O)Nc2n[nH]cc21` (stereo not drawn) [Compound 853910], the IC50 in experiment [1] (setting [3]) was in the range of 0.1 to 1 µM; in experiment [2] (setting [4]) it was 1 to 5 µM.

With `CCC1(c2cccc(-n3ccnc3)c2)C2=C(CC(C)(C)CC2=O)Nc2n[nH]cc21` (stereo not drawn) [Compound 854926], the IC50 in experiment [1] (setting [3]) is at most 0.1 µM; in experiment [2] (setting [4]), 0.1 to 1 µM.

As to `CC1(C)CC(=O)C2=C(C1)Nc1n[nH]c(CCC(F)(F)F)c1C2(C)c1ccccc1` (stereo not drawn) [Compound 856948], the IC50 in experiment [1] (setting [3]) and in experiment [2] (setting [4]) was over 5 µM in each case.

For `CC[C@@]1(c2cccc(C(F)(F)F)c2)C2=C(CCN(C(C)C)C2=O)Nc2n[nH]cc21` [Compound 857336], the values for the IC50 in experiment [1] (setting [9]) and in experiment [2] (setting [11]) were at most 0.1 µM and 0.1 to 1 µM, respectively.

In the case of `CC[C@]1(c2cccc(C(F)(F)F)c2)C2=C(CCN(C(C)C)C2=O)Nc2n[nH]cc21` [Compound 857362], the IC50 in experiment [1] (setting [9]) and in experiment [2] (setting [11]) was over 5 µM each time.

Turning to `CCC1(c2ccccc2)C2=C(Nc3n[nH]cc31)C1CCC1C2=O` (stereo not drawn) [Compound 861716], the IC50 was 1 to 5 µM in experiment [1] (setting [5]) and over 5 µM in experiment [2] (setting [6]).

With `CCC1(c2ccccc2)C2=C(CSC(C)(C)C2=O)Nc2n[nH]cc21` (stereo not drawn) [Compound 862028], the IC50 in experiment [1] (setting [9]) is 0.1 to 1 µM; in experiment [2] (setting [11]) it was 1 to 5 µM.

For the compound `CCC1(c2cccc(-c3ccnc(C)c3)c2)C2=C(CC(C)(C)CC2=O)Nc2n[nH]cc21` (stereo not drawn) [Compound 865170], the IC50 is 1 to 5 µM in experiment [1] (setting [3]) and over 5 µM in experiment [2] (setting [4]).

Consider `CCC1(c2cccc(N3CCCC3=O)c2)C2=C(CC(C)(C)CC2=O)Nc2n[nH]cc21` (stereo not drawn) [Compound 865171], for which the results for the IC50 in experiment [1] (setting [3]) and in experiment [2] (setting [4]) were at most 0.1 µM and 0.1 to 1 µM, respectively.

As to `CC1(C)CC(=O)C2=C(C1)Nc1n[nH]cc1C21CCC(C(F)(F)F)CC1` (stereo not drawn) [Compound 865193], the IC50 is at most 0.1 µM in experiment [1] (setting [7]); 0.1 to 1 µM in experiment [1] (GSK3-A (TR-FRET 1 mM ATP), GMean, IC50, 1 mM ATP, geometric mean); at most 0.1 µM in experiment [2] (setting [8]); 1 to 5 µM in experiment [2] (GSK3-B (TR-FRET 1 mM ATP), GMean, IC50, 1 mM ATP, geometric mean).

In the case of `CCC1(c2cccc(CN(C)C(C)=O)c2)C2=C(CC(C)(C)CC2=O)Nc2n[nH]cc21` (stereo not drawn) [Compound 865194], the figures for the IC50 in experiment [1] (setting [3]) and in experiment [2] (setting [4]) were 0.1 to 1 µM and 1 to 5 µM, respectively.

In the case of `CCC1(c2cccc(CN(C)C(=O)C(C)C)c2)C2=C(CC(C)(C)CC2=O)Nc2n[nH]cc21` (stereo not drawn) [Compound 865195], the IC50 is 0.1 to 1 µM in experiment [1] (setting [3]) and over 5 µM in experiment [2] (setting [4]).

With `CCC1(c2cccc(CN(C)C(=O)COC)c2)C2=C(CC(C)(C)CC2=O)Nc2n[nH]cc21` (stereo not drawn) [Compound 865196], the IC50 in experiment [1] (setting [3]) is 0.1 to 1 µM; in experiment [2] (setting [4]), over 5 µM.

For the compound `CC[C@]1(c2ccccc2)C2=C(Nc3n[nH]cc31)[C@@H](C)C[C@H](C)C2=O` [Compound 865198], the IC50 in experiment [1] (setting [3]) lay in the range of 0.1 to 1 µM; in experiment [2] (setting [4]) it was 1 to 5 µM.

For the compound `CC[C@@]1(c2ccccc2)C2=C(Nc3n[nH]cc31)[C@H](C)C[C@@H](C)C2=O` [Compound 865199], the IC50 in experiment [1] (setting [3]) is 1 to 5 µM; in experiment [2] (setting [4]), over 5 µM.

As for `CC[C@]1(c2ccccc2)C2=C(Nc3n[nH]cc31)[C@H](C)C[C@@H](C)C2=O` [Compound 865201], the values for the IC50 in experiment [1] (setting [3]) and in experiment [2] (setting [4]) were at most 0.1 µM and 0.1 to 1 µM, respectively.

As for `CC[C@@]1(c2ccccc2)C2=C(Nc3n[nH]cc31)[C@@H](C)C[C@H](C)C2=O` [Compound 865202], the IC50 in experiment [1] (setting [3]) and in experiment [2] (setting [4]) was over 5 µM in each case.

As to `CCC1(c2cccc(C(F)(F)F)c2)C2=C(CCNC2=O)Nc2n[nH]cc21` (stereo not drawn) [Compound 870263], the IC50 in experiment [1] (setting [9]) was 0.1 to 1 µM; in experiment [2] (setting [11]), over 5 µM.

For the compound `CCC1(c2cccc(N(C)c3ccncc3)c2)C2=C(CC(C)(C)CC2=O)Nc2n[nH]cc21` (stereo not drawn) [Compound 874261], the IC50 was 0.1 to 1 µM in experiment [1] (setting [3]) and over 5 µM in experiment [2] (setting [4]).

In the case of `CCC1(c2cccc(N(C)c3ccccn3)c2)C2=C(CC(C)(C)CC2=O)Nc2n[nH]cc21` (stereo not drawn) [Compound 874294], the figures for the IC50 in experiment [1] (setting [3]) and in experiment [2] (setting [4]) were at most 0.1 µM and 0.1 to 1 µM, respectively.

As for `CCC1(c2cccc(N(C)c3cccnc3)c2)C2=C(CC(C)(C)CC2=O)Nc2n[nH]cc21` (stereo not drawn) [Compound 874298], the IC50 in experiment [1] (setting [3]) and in experiment [2] (setting [4]) was at most 0.1 µM throughout.

Source of the values: patent US20250313563A1, “GLYCOGEN SYNTHASE KINASE 3 INHIBITORS AND USES THEREOF” (The Broad Institute, Inc., priority 2022, published 2025).
